Source: paper PMC6770006, “Novel Heat Shock Protein 90 Inhibitors Suppress P-Glycoprotein Activity and Overcome Multidrug Resistance in Cancer Cells” (International Journal of Molecular Sciences, 2019)
Entries after “also recorded” stand apart in the source; their conditions may differ.

What was measured:
[1] = system: DLD1-TxR cells; test: MTT assay, cell growth inhibition, DLD1-TxR (MDR); format: cell-based, human; settings: 72 h; for IC50: Homo sapiens, MDR cells
Description: (§1) A series of 3-aryl-naphtho[2,3-d]isoxazole-4,9-diones were synthesized (Scheme 1, Figure 1) and their growth inhibition activity was tested in vitro on human non-small cell lung carcinoma NCI-H460, colorectal carcinoma DLD1 and their corresponding MDR cells (NCI-H460/R and DLD1-TxR, respectively), as well as normal embryonic lung fibroblasts MRC-5. The differences in cell growth inhibition between cancer and normal cells obtained by the MTT assay after 72 h treatment are presented in Table 1. The effect of compounds is presented as IC50 values that correspond to the 50% of cell growth inhibition.
(§2) Human colorectal carcinoma (DLD1), non-small cell lung carcinoma (NCI-H460), and normal embryonic lung fibroblast (MRC-5) cell lines were purchased from the American Type Culture Collection, Rockville, MD. P-gp overexpressing multidrug resistant DLD1-TxR cells were selected by continuous exposure to stepwise increasing concentrations of paclitaxel from DLD1 cells, while NCI-H460/R cells were selected from NCI-H460 cells after DOX selective pressure. MDR cancer cell lines, DLD1-TxR and NCI-H460/R, and their sensitive counterparts were maintained in RPMI 1640 medium supplemented with 10% FBS, 2 mM L-glutamine, and 10,000 U/mL penicillin, 10 mg/mL streptomycin, 25 mg/mL amphotericin B solutions. MRC-5 cells were cultured in DMEM supplemented with 10% FBS, 4 g/L glucose, 2 mM L-glutamine and 5000 U/mL penicillin, 5 mg/mL streptomycin solution. All cell lines were sub-cultured at 72 h intervals using 0.25% trypsin/EDTA and seeded into a fresh medium at 8000 cells/cm^2. All cell lines were maintained at 37 °C in a humidified 5% CO2 atmosphere.
(§3) Cell viability was assessed by the MTT assay (AppliChem GmbH, Darmstadt, Germany). Cells grown in 25 cm^2 tissue flasks were trypsinized and 1000 cells/well were seeded into flat-bottomed 96-well tissue culture plates and incubated overnight. Subsequently, the cells were treated with increasing concentrations of Hsp90 inhibitors for 72 h: compound 3 (0.1–2.5 µM), compound 4 (0.25–5 µM), compound 5 (0.5–25 µM), compound 6 (50–1000 nM), compound 7 (10–250 nM), compound 8 (0.25–5 µM), compound 9 (10–250 nM), compound 10 (0.5–25 µM), compound 13 (0.5–10 µM), compound 14 (1–25 µM), and compound 15 (10–250 nM). […] After treatment, MTT was added to each well in a final concentration of 0.2 mg/mL for 4 h. Formazan product was dissolved in 200 µl of DMSO, and the absorbance was measured at 540 nm using an automatic LKB 5060-006 Micro Plate Reader (Vienna, Austria). IC50 value was defined as a concentration of the drug that inhibited cell growth by 50% and was calculated by nonlinear regression analysis using GraphPad Prism 6.0 for Windows (La Jolla, CA, USA). Relative selectivity towards cancer cells was calculated as a relation between IC50 value obtained in MRC-5 cells and an average IC50 value from four tested cancer cell lines.

[2] = system: NCI-H460/R cells; test: MTT assay, cell growth inhibition, NCI-H460/R (MDR); format: cell-based, human; settings: for Efficacy in MDR NCI-H460/R cells compared with sensitive NCI-H460: 72 h; for IC50: Homo sapiens, NCI-H460, 72 h, MDR cells
Description: as §1, §2, §3

[3] = system: Hsp90; design: method as in PMID 22538015; settings: read-out: Hsp90 Affinity binding; cited from earlier work
[4] = system: DLD1 cells; test: MTT assay, cell growth inhibition, DLD1; format: cell-based; settings: Homo sapiens, DLD-1, 72 h
Description: as §1, §3

[5] = system: NCI-H460, NCI-H460/R, DLD1, DLD1-TxR cells; test: MTT assay, grouping of inhibitors by IC50 over the cancer cell lines; format: cell-based; settings: Homo sapiens, Figure 2b, read-out: IC50 values (grouping for Pearson correlation)
Description: When the IC50 values obtained by the MTT assay were compared to Hsp90 affinity binding IC50 values (Table 1), a positive Pearson correlation (r > 0.5) was found for all cancer cell lines (Figure 2b).
as §3

[6] = target: P-gp (Homo sapiens, UniProt P08183); test: Rhodamine 123 accumulation assay (P-gp activity, flow cytometry); format: cell-based; design: P-gp overexpressing multidrug resistant DLD1-TxR cells were selected by continuous exposure to stepwise increasing concentrations of paclitaxel from DLD1 cells; endogenous in cells; host or cells: NCI-H460/R and DLD1-TxR (drug-selected MDR human cancer cells); settings: MDR NCI-H460/R and DLD1-TxR cells, 30 min, one concentration per compound (100 nM-10 µM), Figure 3a
Description: To study the effect of Hsp90 inhibitors on P-gp activity in MDR cancer cells, intracellular accumulation of the P-gp substrate rhodamine 123 (Rho 123) was analyzed by flow cytometry after 30 min treatment (Figure 3a). A well-known inhibitor of P-gp activity, tariquidar (TQ), was included as a positive control.
The accumulation of Rho 123, a fluorescent P-gp substrate, was measured by flow cytometry. The intensity of the fluorescence is proportional to Rho 123 accumulation in the cell. All cell lines were seeded in adherent 6-well plates and grown overnight. DLD1-TxR and NCI-H460/R cells were treated for 30 min with the following concentrations of Hsp90 inhibitors: 500 nM compound 3, 1 µM compound 4, 10 µM compound 5, 500 nM compound 6, 500 nM compound 7, 1 µM compound 8, 500 nM compound 9, 1 µM compound 10, 1 µM compound 13, 10 µM compound 14, 100 nM compound 15. TQ (10 nM) was used as a positive control for Rho 123 accumulation. Rho 123 (5 μM) was simultaneously added with the investigated compounds and the cells were incubated at 37 °C in 5% CO2 for 30 min. The cells were then trypsinized, pelleted by centrifugation, washed with PBS and placed in ice-cold PBS. The samples were kept on ice in the dark until the analysis on CyFlow Space Partec flow cytometer (Sysmex Partec GmbH, Görlitz, Germany). The fluorescence of Rho 123 was detected on fluorescence channel 1 (FL1-H) at 530 nm. A minimum of 10,000 events were collected for each sample and the obtained results were analyzed using Summit software.

[7] = system: MRC-5 cells; test: MTT assay, normal embryonic lung fibroblasts MRC-5; format: cell-based, human; settings: for IC50: Homo sapiens, MRC5, MTT, 72 h, normal fibroblasts, read-out: Cell growth inhibition IC50, MRC-5; for Relative Selectivity: IC50 in MRC-5 cells / average IC50 of four cancer cell lines
Description: as §1, §3

[8] = system: NCI-H460 cells; test: MTT assay, cell growth inhibition, NCI-H460; format: cell-based; settings: Homo sapiens, 72 h, three independent experiments
Description: as §1, §3

Sequence of P-gp (P08183 whole entry): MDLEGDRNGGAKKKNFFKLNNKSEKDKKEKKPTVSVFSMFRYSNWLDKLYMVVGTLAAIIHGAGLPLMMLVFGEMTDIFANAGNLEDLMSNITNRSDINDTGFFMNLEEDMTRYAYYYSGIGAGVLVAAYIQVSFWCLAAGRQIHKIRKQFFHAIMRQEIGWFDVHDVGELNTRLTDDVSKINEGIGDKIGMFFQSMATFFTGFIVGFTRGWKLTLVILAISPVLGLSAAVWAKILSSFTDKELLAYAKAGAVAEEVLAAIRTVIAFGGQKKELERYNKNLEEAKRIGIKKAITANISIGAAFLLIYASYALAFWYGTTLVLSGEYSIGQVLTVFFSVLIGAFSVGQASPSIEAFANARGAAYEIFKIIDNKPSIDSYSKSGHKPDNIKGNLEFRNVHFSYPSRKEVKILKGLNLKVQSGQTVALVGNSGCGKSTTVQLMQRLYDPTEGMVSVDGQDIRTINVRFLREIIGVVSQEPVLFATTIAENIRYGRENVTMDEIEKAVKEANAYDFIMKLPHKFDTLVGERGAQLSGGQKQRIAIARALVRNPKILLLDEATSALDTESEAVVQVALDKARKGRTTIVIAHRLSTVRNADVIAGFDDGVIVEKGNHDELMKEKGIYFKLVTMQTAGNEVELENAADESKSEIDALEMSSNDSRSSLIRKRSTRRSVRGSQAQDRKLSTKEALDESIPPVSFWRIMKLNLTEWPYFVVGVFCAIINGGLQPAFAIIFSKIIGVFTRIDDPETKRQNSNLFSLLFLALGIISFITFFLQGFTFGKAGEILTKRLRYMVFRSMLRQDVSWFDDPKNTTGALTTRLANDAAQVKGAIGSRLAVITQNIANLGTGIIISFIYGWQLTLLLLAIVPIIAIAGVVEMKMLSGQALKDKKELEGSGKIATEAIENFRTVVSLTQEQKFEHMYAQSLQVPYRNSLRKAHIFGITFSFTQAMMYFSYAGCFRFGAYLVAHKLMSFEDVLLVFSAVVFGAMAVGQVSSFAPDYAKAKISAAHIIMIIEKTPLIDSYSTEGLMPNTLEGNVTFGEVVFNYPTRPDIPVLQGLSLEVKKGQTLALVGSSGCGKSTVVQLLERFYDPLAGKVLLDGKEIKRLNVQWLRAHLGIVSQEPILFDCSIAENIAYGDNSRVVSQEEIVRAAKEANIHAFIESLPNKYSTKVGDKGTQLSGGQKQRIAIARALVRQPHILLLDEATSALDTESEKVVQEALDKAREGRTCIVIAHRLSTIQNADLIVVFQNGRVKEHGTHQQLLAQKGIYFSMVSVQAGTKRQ

Row | SMILES | Efficacy in MDR DLD1-TxR cells compared with sensitive DLD1 [1] | IC50 [1] | Efficacy in MDR NCI-H460/R cells compared with sensitive NCI-H460 [2] | IC50 [2] | IC50 [3] | IC50 [4] | IC50 [5] | P-gp activity / Rho 123 accumulation [6] | IC50 [7] | IC50 [8] | Relative Selectivity [7]
1 | O=C1c2ccccc2C(=O)c2c(-c3ccccc3)noc21 [Compound 3] | better efficacy in cells with MDR phenotype | 0.644 ± 0.02 µM | better efficacy in cells with MDR phenotype | 0.599 ± 0.02 µM | 7.85 µM | 0.925 ± 0.032 µM | < 1 µM | did not influence the P-gp activity | 0.636 ± 0.023 µM | 0.785 ± 0.032 µM | –
2 | COc1ccc(-c2noc3c2C(=O)c2ccccc2C3=O)cc1 [Compound 4] | remained higher than in the corresponding sensitive cells | 1.06 ± 0.025 µM | remained higher than in the corresponding sensitive cells | 0.579 ± 0.018 µM | 5.84 µM | 1.52 ± 0.054 µM | – | did not have any positive effects | 1.75 ± 0.083 µM | 0.935 ± 0.048 µM | 1.71
3 | O=C1c2ccccc2C(=O)c2c(-c3ccc(OCCN4CCOCC4)cc3)noc21 [Compound 6] | evaded resistance | 0.439 ± 0.01 µM | collateral sensitivity | 0.472 ± 0.018 µM | 1.2 µM | 0.439 ± 0.006 µM | < 1 µM | did not have any positive effects | 4.74 ± 0.473 µM | 0.807 ± 0.035 µM | 8.79
4 | O=C1c2ccccc2C(=O)c2c(-c3cc[n+](Cc4ccccc4)cc3)noc21 [Compound 8] | compromised in the presence of the MDR phenotype | 3.36 ± 0.049 µM | compromised in the presence of the MDR phenotype | 0.351 ± 0.005 µM | 0.034 µM | 0.251 ± 0.003 µM | ≥ 1 µM | detrimental; also recorded: modest activity | 11 ± 0.366 µM | 0.159 ± 0.003 µM | 10.69
